Results: patent publication US10913727B2, “Modulators of the integrated stress pathway” (Calico Life Sciences LLC, priority 2016, dated 2021)
pEC50: −log10 of the molar value.

Test system: HEK293T cells carrying the ATF4 luciferase reporter
Assay: ATF4-Luc assay, in vitro model of Vanishing Cell White Matter Disease (VWMD)
Assay type: cell-based
Conditions: Homo sapiens, HEK-293T, 1 μg/mL tunicamycin, 7 hours, One Glo luminescence
How it was run: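 Reporter cells were stably generated by retroviral transduction and puromycin selection, then seeded at 30,000 cells/well. Next day, cells received 1 μg/mL tunicamycin with 200 nM test compound for 7 h, and luciferase luminescence was read with a one-step reagent. Values reported as EC50.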

| Structure (SMILES) | pEC50 |
| --- | --- |
| O=C(COc1ccc(Cl)c(F)c1)NC12CC(NC(=O)c3ccsc3)(C1)C2 [Compound 306, N-{3-[2-(4-chloro-3-fluorophenoxy)acetamido]bicyclo[1.1.1]pentan-1-yl}thiophene-3-carboxamide] | 6.00 to 6.60 |
| O=C(COc1ccc(Cl)c(F)c1)NC12CC(NC(=O)c3ccc[nH]3)(C1)C2 [Compound 307, N-{3-[2-(4-chloro-3-fluorophenoxy)acetamido]bicyclo[1.1.1]pentan-1-yl}-1H-pyrrole-2-carboxamide] | 6.00 to 6.60 |
| O=C(COc1ccc(Cl)c(F)c1)NC12CC(NC(=O)c3cscn3)(C1)C2 [Compound 308, N-{3-[2-(4-chloro-3-fluorophenoxy)acetamido]bicyclo[1.1.1]pentan-1-yl}-1,3-thiazole-4-carboxamide] | 6.00 to 6.60 |
| O=C(COc1ccc(Cl)c(F)c1)NC12CC(NC(=O)c3cncs3)(C1)C2 [Compound 309, N-{3-[2-(4-chloro-3-fluorophenoxy)acetamido]bicyclo[1.1.1]pentan-1-yl}-1,3-thiazole-5-carboxamide] | 6.00 to 6.60 |
| O=C(COc1ccc(Cl)c(F)c1)NC12CC(NC(=O)c3cn[nH]c3)(C1)C2 [Compound 310, N-{3-[2-(4-chloro-3-fluorophenoxy)acetamido]bicyclo[1.1.1]pentan-1-yl}-1H-pyrazole-4-carboxamide] | < 5.70 |
| O=C(COc1ccc(Cl)c(F)c1)NC12CC(NC(=O)c3ccno3)(C1)C2 [Compound 311, N-{3-[2-(4-chloro-3-fluorophenoxy)acetamido]bicyclo[1.1.1]pentan-1-yl}-1,2-oxazole-5-carboxamide] | 5.70 to 6.00 |
| Cc1noc(C)c1C(=O)NC12CC(NC(=O)COc3ccc(Cl)c(F)c3)(C1)C2 [Compound 312, N-{3-[2-(4-chloro-3-fluorophenoxy)acetamido]bicyclo[1.1.1]pentan-1-yl}-3,5-dimethyl-1,2-oxazole-4-carboxamide] | < 5.70 |
| O=C(COc1ccc(Cl)c(F)c1)NC12CC(NC(=O)c3c[nH]c4ccccc34)(C1)C2 [Compound 313, N-{3-[2-(4-chloro-3-fluorophenoxy)acetamido]bicyclo[1.1.1]pentan-1-yl}-1H-indole-3-carboxamide] | 6.60 to 7.30 |
| Cc1ccn2c(=O)c(C(=O)NC34CC(NC(=O)COc5ccc(Cl)c(F)c5)(C3)C4)cnc2c1 [Compound 314, N-{3-[2-(4-chloro-3-fluorophenoxy)acetamido]bicyclo[1.1.1]pentan-1-yl}-8-methyl-4-oxo-4H-pyrido[1,2-a]pyrimidine-3-carboxamide] | < 5.70 |
| O=C(COc1ccc(Cl)c(F)c1)NC12CC(NC(=O)c3coc4c3C(=O)CCC4)(C1)C2 [Compound 315, N-{3-[2-(4-chloro-3-fluorophenoxy)acetamido]bicyclo[1.1.1]pentan-1-yl}-4-oxo-4,5,6,7-tetrahydro-1-benzofuran-3-carboxamide] | 6.00 to 6.60 |
| CCCOc1ccc(C(=O)NC23CC(NC(=O)COc4ccc(Cl)c(F)c4)(C2)C3)cc1 [Compound 316, N-{3-[2-(4-chloro-3-fluorophenoxy)acetamido]bicyclo[1.1.1]pentan-1-yl}-4-propoxybenzamide] | 6.60 to 7.30 |
| O=C(COc1ccc(Cl)c(F)c1)NC12CC(NC(=O)c3cc4ccccc4o3)(C1)C2 [Compound 317, N-{3-[2-(4-chloro-3-fluorophenoxy)acetamido]bicyclo[1.1.1]pentan-1-yl}-1-benzofuran-2-carboxamide] | > 7.30 |
| O=C(COc1ccc(Cl)c(F)c1)NC12CC(NC(=O)c3n[nH]c4ccccc34)(C1)C2 [Compound 318, N-{3-[2-(4-chloro-3-fluorophenoxy)acetamido]bicyclo[1.1.1]pentan-1-yl}-1H-indazole-3-carboxamide] | < 5.70 |
| COc1ccc2oc(C(=O)NC34CC(NC(=O)COc5ccc(Cl)c(F)c5)(C3)C4)cc2c1 [Compound 319, N-{3-[2-(4-chloro-3-fluorophenoxy)acetamido]bicyclo[1.1.1]pentan-1-yl}-5-methoxy-1-benzofuran-2-carboxamide] | 6.60 to 7.30 |
| O=C(COc1ccc(Cl)c(F)c1)NC12CC(NC(=O)c3ccn[nH]3)(C1)C2 [Compound 320, N-{3-[2-(4-chloro-3-fluorophenoxy)acetamido]bicyclo[1.1.1]pentan-1-yl}-1H-pyrazole-5-carboxamide] | 5.70 to 6.00 |
| O=C(COc1ccc(Cl)c(F)c1)NC12CC(NC(=O)c3ccc(OC(F)(F)F)cc3)(C1)C2 [Compound 321, N-{3-[2-(4-chloro-3-fluorophenoxy)acetamido]bicyclo[1.1.1]pentan-1-yl}-4-(trifluoromethoxy)benzamide] | 6.60 to 7.30 |
| O=C(COc1ccc(Cl)c(F)c1)NC12CC(NC(=O)c3ccc(O)nc3)(C1)C2 [Compound 322, N-{3-[2-(4-chloro-3-fluorophenoxy)acetamido]bicyclo[1.1.1]pentan-1-yl}-6-hydroxypyridine-3-carboxamide] | < 5.70 |

| Structure (SMILES) | pEC50 |
| --- | --- |
| CCc1cc(C(=O)NC23CC(NC(=O)COc4ccc(Cl)c(F)c4)(C2)C3)on1 [Compound 323, N-{3-[2-(4-chloro-3-fluorophenoxy)acetamido]bicyclo[1.1.1]pentan-1-yl}-3-ethyl-1,2-oxazole-5-carboxamide] | 6.00 to 6.60 |
| Cc1cc(C(=O)NC23CCC(NC(=O)COc4ccc(Cl)c(F)c4)(C2)C3)on1 [Compound 324, N-{4-[2-(4-chloro-3-fluorophenoxy)acetamido]bicyclo[2.1.1]hexan-1-yl}-3-methyl-1,2-oxazole-5-carboxamide] | 6.00 to 6.60 |
| NS(=O)(=O)c1ccc(C(=O)NC23CC(NC(=O)COc4ccc(Cl)c(F)c4)(C2)C3)cn1 [Compound 325, N-{3-[2-(4-chloro-3-fluorophenoxy)acetamido]bicyclo[1.1.1]pentan-1-yl}-6-sulfamoylpyridine-3-carboxamide] | < 5.70 |
| Cc1cc(C(=O)NC23CCC(NC(=O)COc4ccc(Cl)c(F)c4)(CC2)C(O)C3)on1 (stereo not shown) [Compound 326, N-{4-[2-(4-chloro-3-fluorophenoxy)acetamido]-3-hydroxybicyclo[2.2.2]octan-1-yl}-3-methyl-1,2-oxazole-5-carboxamide] | 6.60 to 7.30 |
| O=C(COc1ccc(Cl)c(F)c1)NC12CCC(NC(=O)c3cc(C4CC4)no3)(CC1)CC2O (stereo not shown) [Compound 327, N-{4-[2-(4-chloro-3-fluorophenoxy)acetamido]-3-hydroxybicyclo[2.2.2]octan-1-yl}-3-cyclopropyl-1,2-oxazole-5-carboxamide] | 6.60 to 7.30 |
| O=C(COc1ccc(Cl)c(F)c1)NC12CCC(NC(=O)c3onc4ccccc34)(CC1)CC2O (stereo not shown) [Compound 328, N-{4-[2-(4-chloro-3-fluorophenoxy)acetamido]-3-hydroxybicyclo[2.2.2]octan-1-yl}-2,1-benzoxazole-3-carboxamide] | 5.70 to 6.00 |
| Cn1nc(C2CC2)cc1C(=O)NC12CC(NC(=O)COc3ccc(Cl)c(F)c3)(C1)C2 [Compound 329, N-{3-[2-(4-chloro-3-fluorophenoxy)acetamido]bicyclo[1.1.1]pentan-1-yl}-3-cyclopropyl-1-methyl-1H-pyrazole-5-carboxamide] | 6.60 to 7.30 |
| Cc1cc(C(=O)NC23CCC(NC(=O)COc4ccc(Cl)c(F)c4)(CC2)CC3O)on1 (stereo not shown) [Compound 330, N-{4-[2-(4-chloro-3-fluorophenoxy)acetamido]-2-hydroxybicyclo[2.2.2]octan-1-yl}-3-methyl-1,2-oxazole-5-carboxamide] | 6.60 to 7.30 |
| O=C(COc1ccc(Cl)c(F)c1)NC12CCC(NC(=O)c3cc(C4CC4)no3)(CC1)C(O)C2 (stereo not shown) [Compound 331, N-{4-[2-(4-chloro-3-fluorophenoxy)acetamido]-2-hydroxybicyclo[2.2.2]octan-1-yl}-3-cyclopropyl-1,2-oxazole-5-carboxamide] | 6.00 to 6.60 |
| O=C(COc1ccc(Cl)c(F)c1)NC12CCC(NC(=O)c3onc4ccccc34)(CC1)C(O)C2 (stereo not shown) [Compound 332, N-{4-[2-(4-chloro-3-fluorophenoxy)acetamido]-2-hydroxybicyclo[2.2.2]octan-1-yl}-2,1-benzoxazole-3-carboxamide] | < 5.70 |
| CCCc1cnc(C(=O)NC23CC(NC(=O)COc4ccc(Cl)c(F)c4)(C2)C3)cn1 [Compound 334, N-{3-[2-(4-chloro-3-fluorophenoxy)acetamido]bicyclo[1.1.1]pentan-1-yl}-5-propylpyrazine-2-carboxamide] | > 7.30 |
| N#CCCc1ccc(C(=O)NC23CCC(NC(=O)COc4ccc(Cl)c(F)c4)(C2)C3)nc1 [Compound 336, N-{4-[2-(4-chloro-3-fluorophenoxy)acetamido]bicyclo[2.1.1]hexan-1-yl}-5-(2-cyanoethyl)pyridine-2-carboxamide] | < 5.70 |
| O=C(COc1ccc(Cl)c(F)c1)NC12CCC(NC(=O)c3ccc(OC(F)F)cn3)(C1)C2 [Compound 337, N-{4-[2-(4-chloro-3-fluorophenoxy)acetamido]bicyclo[2.1.1]hexan-1-yl}-5-(difluoromethoxy)pyridine-2-carboxamide] | 6.00 to 6.60 |
| Cn1nc(C(C)(C)C)cc1C(=O)NC12CC(NC(=O)COc3ccc(Cl)c(F)c3)(C1)C2 [Compound 338, 3-tert-butyl-N-{3-[2-(4-chloro-3-fluorophenoxy)acetamido]bicyclo[1.1.1]pentan-1-yl}-1-methyl-1H-pyrazole-5-carboxamide] | 6.60 to 7.30 |
| O=C(COc1ccc(Cl)c(F)c1)NC12CC(NC(=O)c3csc(-c4ccccc4)n3)(C1)C2 [Compound 339, N-{3-[2-(4-chloro-3-fluorophenoxy)acetamido]bicyclo[1.1.1]pentan-1-yl}-2-phenyl-1,3-thiazole-4-carboxamide] | > 7.30 |
| Cn1nc(-c2ccccc2)cc1C(=O)NC12CC(NC(=O)COc3ccc(Cl)c(F)c3)(C1)C2 [Compound 340, N-{3-[2-(4-chloro-3-fluorophenoxy)acetamido]bicyclo[1.1.1]pentan-1-yl}-1-methyl-3-phenyl-1H-pyrazole-5-carboxamide] | > 7.30 |
| Cc1nc2ccc(C(=O)NC34CC(NC(=O)COc5ccc(Cl)c(F)c5)(C3)C4)cc2o1 [Compound 341, N-{3-[2-(4-chloro-3-fluorophenoxy)acetamido]bicyclo[1.1.1]pentan-1-yl}-2-methyl-1,3-benzoxazole-6-carboxamide] | < 5.70 |
